In patent publication US20250188075A1, “SUBSTITUTED HETEROCYCLIC CSNK1 INHIBITORS” (The Broad Institute, Inc., priority 2022, published 2025):
Like-named read-outs stand apart in the source and are kept apart here.

Tests used:
human CSNK1G3 = human CSNK1G3 (Homo sapiens (Human), UniProt Q9Y6M4); assay: CSNK1G3 assay (ADP-Glo); assay type: biochemical; settings: median, read-out: CSNK1G IC50 [mol/l] (median)
Experimental: CSNK1G3-inhibitory activity of compounds of the present invention in presence of 1 μM adenosine-tri-phosphate (ATP) was quantified employing the CSNK1G3 assay as described in the following paragraphs. In essence, the enzyme activity is measured by quantification of the adenosine-di-phosphate (ADP), which is generated as a co-product of the enzyme reaction, via the “ADP-Glo™ Kinase Assay” kit from the company Promega. This detection system works as follows: In a first step the ATP not consumed in the kinase reaction is quantitatively converted to CAMP employing an adenylate cyclase (“ADP-Glo-reagent”), then the adenylate cyclase is stopped and the ADP generated in the kinase reaction converted to ATP which generates in a luciferase-based reaction a glow-luminescence signal (“Kinase Detection Reagent”).
Recombinant fusion protein of N-terminal Glutathion-S-Transferase (GST) and full-length human CSNK1G3, expressed by baculovirus infected insect cells and purified via Glutathion affinity chromatography, was purchased from Life Technologies (product no. PV3838) and used as enzyme. As substrate for the kinase reaction the biotinylated peptide biotin-Ahx-KRRRAL-pS-VASLPGL (C-terminus in amide form) was used which can be purchased e.g. from the company Biosyntan (Berlin-Buch, Germany).
For the assay 50 nl of a 100 fold concentrated solution of the test compound in DMSO was pipetted into a white 1536-well microtiter plate (Greiner Bio-One, Frickenhausen, Germany), 2 μL of a solution of CSNK1G3 in aqueous assay buffer [50 mM HEPES pH 7.5, 10% (v/v) glycerol, 10 mM MgCl2, 50 mM NaCl, 1 mM dithiothreitol, 0.01% (w/v) bovine serum albumin, 0.01% (v/v) Triton X-100] were added and the mixture was incubated for 15 min at 22° C. to allow pre-binding of the test compounds to the enzyme before the start of the kinase reaction. Then the kinase reaction was started by the addition of 3 μL of a solution of ATP ([…]=>final conc. in the 5 μL assay volume is 1 M) and peptide substrate (50 μM=>final conc. in the 5 μL assay volume is 30 μM) in assay buffer and the resulting mixture was incubated for a reaction time of 30 min at 22° C. The concentration of CSNK1G3 was adjusted depending of the activity of the enzyme lot and was chosen appropriate to have the assay in the linear range, a typical concentration is about 0.06 ng/μL. The reaction was stopped by the addition of 2.5 μL of “ADP-Glo-reagent” (1:1.5 fold diluted with water) and the resulting mixture was incubated at 22° C. for 1 h to convert the ATP not consumed in the kinase reaction completely to CAMP. Subsequently 2.5 μL of the “kinase detection reagent” (1.2 fold more concentrated than recommended by the producer) were added, the resulting mixture was incubated at 22° C. for 1 h and then the luminescence measured with a suitable measurement instrument (e.g. Viewlux™ from Perkin-Elmer). The amount of emitted light was taken as a measure for the amount of ADP generated and thereby for the activity of the CSNK1G3.
The data were normalised (enzyme reaction without inhibitor=0% inhibition, all other assay components but no enzyme=100% inhibition).

HT-29 cells = assay: HT29 cell proliferation assay, CTG method; assay type: cell-based; settings: Homo sapiens; HT-29, CTG, 96 h; median; read-out: 2D-PROLI HT-29 CTG 96 h, IC50 - [mol/l] (median)
Experimental: CELL PROLIFERATION ASSAY CTG METHOD, 384-well version: Day 1: plated 400 cells/30 μL/well in growth medium (DMEM/Ham's F12; (Biochrom; #FG 4815, mit stabilem Glutamin)+FCS (final: 10%); (Biochrom; #S 0415)) in 384-well black plates (Corning #3571). Plated sister wells in a separate plate for time zero determination. Incubated all plates overnight at 37° C. Day 2: added test compounds in serial dilutions using the HP D300 Digital Dispenser and incubated at 37° C. for 96 h. Measured time zero plate: add 30 μL/well CTG solution (Promega CellTiter-Glo solution (catalog #G7573)) to wells in time zero plate; incubated for 2 minutes in a orbital shaker to induce cell lysis; allowed the plate to incubate at room temperature for additional 10 min to stabilize luminescent signal and read luminescence on PheraStar (rapid mode—0.02 sec/well; GAIN 3000). Day 6: Added 30 μL/well CTG solution to all test wells, incubated for 2 minutes in a orbital shaker to induce cell lysis; allowed the plate to incubate at room temperature for additional 10 min to stabilize luminescent signal and read luminescence on PheraStar (rapid mode—0.02 sec/well; GAIN 3000 Proliferation IC50s were calculated using the DRC application in ShiNy Analysis Platform-SNAP.”

HCT 116 cells = assay: HCT 116 cell proliferation assay, CTG; assay type: cell-based; settings: Homo sapiens; HCT 116, CTG, 96 h; median; read-out: 2D-PROLI HCT 116 CTG 96 h, IC50 - [mol/l] (median)
Experimental: 400 HCT 116 cells/30 μL/well were plated in growth medium (DMEM/Ham's F12, 10% FCS) in a 384-well plate (CORNING #3571) at day 1. Reference plate was seeded for time zero determination. All plates were incubated overnight 37° C. Day 2: test compound was added in 7-step dilution and incubate at 37° C. for 96 h. Day 2: time zero plate: 30 μL/well CTG solution (Promega Cell Titer Glo solution; catalog #G755B and G756B) were added, incubated for 30 minutes, read luminescence on PheraStar. Day 6: compound treated plates: 30 μL/well CTG solution (Promega Cell Titer Glo solution; catalog #G755B and G756B) were added, incubated for 30 minutes, luminescence was read on PheraStar. Proliferation was calculated after subtracting time zero luminescence values from day 6 values and comparing to untreated wells. The IC50 values were determined using the four parameter fit.

[1] = Solubility assay (thermodynamic solubility); assay type: physicochemical; settings: thermodynamic from solid, aqueous buffer, mean
[2] = read-out: Thermodynamic Solubility [mg/l] (mean)
[3] = read-out: Thermodynamic Solubility [μmol/L] (mean)

Sequence of human CSNK1G3 (Q9Y6M4 whole entry): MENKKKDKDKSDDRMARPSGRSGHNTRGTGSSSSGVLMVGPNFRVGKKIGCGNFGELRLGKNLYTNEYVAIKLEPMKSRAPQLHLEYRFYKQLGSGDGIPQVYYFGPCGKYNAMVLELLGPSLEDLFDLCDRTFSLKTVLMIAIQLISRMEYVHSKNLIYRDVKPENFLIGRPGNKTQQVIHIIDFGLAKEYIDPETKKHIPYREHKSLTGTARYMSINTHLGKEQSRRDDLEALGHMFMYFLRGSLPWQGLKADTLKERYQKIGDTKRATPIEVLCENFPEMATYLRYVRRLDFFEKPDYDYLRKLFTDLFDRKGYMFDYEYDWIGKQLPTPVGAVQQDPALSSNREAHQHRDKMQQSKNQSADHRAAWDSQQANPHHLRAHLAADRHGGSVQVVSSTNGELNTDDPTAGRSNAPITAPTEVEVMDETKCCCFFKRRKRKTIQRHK

Structure (SMILES)	IC50 (human CSNK1G3) [nM]	IC50 (HT-29 cells) [nM]	IC50 (HCT 116 cells) [nM]	solubility thermodynamic at 24 h [1, 2] [mg/L]	solubility thermodynamic at 24 h [1, 3] [µmol/L]
Cc1nc(CC(=O)Nc2cc(-c3[nH]c4cccnc4c3-c3ccccn3)ccn2)cs1 [Example 3, 2-(2-methylthiazol-4-yl)-N-[4-[3-(2-pyridyl)-^1H-pyrrolo[3,2-b]pyridin-2-yl]-2-pyridyl]acetamide]	39.1	445	359	9.1	21.3
Cc1noc(C)c1CC(=O)Nc1cc(-c2[nH]c3cccnc3c2-c2ccccn2)ccn1 [Example 12, 2-(3,5-dimethylisoxazol-4-yl)-N-[4-[3-(2-pyridyl)-^1H-pyrrolo[3,2-b]pyridin-2-yl]-2-pyridyl]acetamide]	62.6	1190	1080	9.9	23.3
